This note sets out measurements from patent US20110312961A1, “2,5-Disubstituted Morpholine Orexin REceptor Antagonists” (priority 2008, published 2011).

What is called Aqueous Solubility is how much of the substance goes into solution per volume.

Data set [1] is described as follows: Aqueous solubility of salts (salt screen). The conditions noted are these: target 10 mg/ml at 25° C., unbuffered. The class given is physicochemical.
Data set [2] relates to ovalbumin-sensitized mice. The data set can be described thus: Airway hyperresponsiveness (Penh) and BALF cell counts. The class given is in vivo, mouse. The protocol: Using the method of Hamelmann et al, (2S,3R)—N-2-((3-pyridinyl)methyl)-1-azabicyclo[2.2.2]oct-3-yl)-3,5-difluorobenzamide was evaluated for possible inhibition of airway hyper-responsiveness in mice. Briefly, ovalbumin (OVA)-sensitized animals, 12 animals per group, were challenged by nasal inhalation with aerosolized 5% OVA for 25 min on days 21, 23, and 25. The mice were treated with vehicle or (2S,3R)—N-2-((3-pyridinyl)methyl)-1-azabicyclo[2.2.2]oct-3-yl)-3,5-difluorobenzamide subcutaneously (s.c.) twice daily from day 21 to day 26 or once daily intratracheally (i.t.), preceding ovalbumin aerosol challenge by 30 min on days 21, 23 and 25 as well as methacholine challenge or bronchoalveolar lavage fluids (BALF) harvest on day 26. Dexamethasone, the reference standard, was administered at 3 mg/kg orally (p.o.) once daily 60 min before OVA challenge on day 21, 23 and 25 and 60 min before methacholine provocation or BALF harvest on day 26. Noninvasive measurements of airway responsiveness were performed by using whole body plethysmography, in which increases in enhanced pause (Penh) serve as an index of airway obstruction. Responses to inhaled methacholine were measured and calculated as percentage of respective baseline values. Unpaired Students t-test was used for comparison between the vehicle control and the sham group; one-way ANOVA and Dunnett's post-hoc analyses were applied for comparison between the vehicle control and treated groups. Statistical significance is considered at P<0.05.

The subject of data set [3] is db/db mouse. Nature of the data set: Murine model of type 2 diabetes mellitus (db/db). The class given is in vivo. The note with it: MLA 3 mg/kg daily via gavage with Compound A 1.0 mg/kg, obese mice. An excerpt: The db/db mouse, a well established model of type 2 diabetes mellitus, is a leptin-deficient mutant that expresses an obese phenotype and also commonly expresses metabolic symptoms including hyperglycemia, hyperlipidemia and hyperinsulinemia (Halaas et al., 1995 and Lee et al., 1996). This experimental animal model of diabetes was employed in a study designed to determine the effects of (2S,3R)—N-2-((3-pyridinyl)methyl)-1-azabicyclo[2.2.2]oct-3-yl)-3,5-difluorobenzamide on body mass and several additional metabolic parameters.
In this study, (2S,3R)—N-2-((3-pyridinyl)methyl)-1-azabicyclo[2.2.2]oct-3-yl)-3,5-difluorobenzamide was repeatedly administered orally (via gavage) at 1.0 mg/kg once daily starting from the age of approximately 3 weeks and continuing throughout the 7-week study. Nondiabetic heterozygote littermate mice (db/+; designated “Db”) were used as controls. Body weight and food intake were determined twice weekly. The α7 antagonist methyllycaconitine (MLA) was also given concurrently via gavage at 3 mg/kg daily to selected cohorts of db/db (designated “db”) or db/+mice. At the end of the 7-week dosing regimen, total growth rates (overall body weight gain) and average daily food intake were calculated. In addition, glucose levels were assessed in mice fasted overnight. Furthermore, blood sample analytes from mice fasted overnight were collected for measurements of tumor necrosis factor-a (TNF-α), triglycerides and glycosylated hemoglobin (HbA1c). All data are expressed as mean±SEM. For each parameter investigated, differences among all groups were compared by one-way ANOVA with post-hoc Neuman-Keuls multiple comparison test.

Data set [4] deals with STZ rat model of diabetic neuropathy. The data set can be described thus: Streptozotocin (STZ)-induced diabetic neuropathy, Von Frey allodynia. The class given is in vivo. The conditions noted are these: 150 mg/kg i.p., 2 hours before testing, all treatment days, vs pretreatment and vehicle, p<0.01. The text has this:
Peripheral neuropathy, a major complication of diabetes, often results in spontaneous pain or the perception of pain from contact with a normally non-noxious stimulus. Such neuropathic pain is experienced by 20-24% of diabetic patients, or approximately 30 million people worldwide (Schmader, 2002). The streptozotocin (STZ)-induced diabetes model in rats provides a means to evaluate the efficacy of test compounds that offer therapeutic potential for peripheral neuropathy and to understand their putative mechanism of action. In this model, a single injection of STZ, an antibiotic that mimics clinical diabetes by causing irreversible damage to the pancreatic β and α-cells leads to chronic hyperglycemia, nerve dysfunction and pain sensitivity. The current study utilizes the STZ rat model of diabetic neuropathy to investigate the effects of (2S,3R)—N-2-((3-pyridinyl)methyl)-1-azabicyclo[2.2.2]oct-3-yl)-3,5-difluorobenzamide on mechanical allodynia, an assessment of pain.
Diabetes was induced by a 0.5 ml injection of streptozotocin (60 mg/kg) dissolved in citrate buffer (pH) into the tail vein of each rat The development of diabetes was confirmed by measuring the blood glucose levels (BGL) of all animals on study day 3 (BGL>300 mg/dL). […] These animals were tested again for their BGL at study day 23.
(2S,3R)—N-2-((3-pyridinyl)methyl)-1-azabicyclo[2.2.2]oct-3-yl)-3,5-difluorobenzamide (0.1, 1 or 10 mg/kg p.o.) was administered as a solution of the hydrochloride salt in water once daily starting on study day 14 or study day 16 and continuing through study day 21 or 23, respectively. The control article gabapentin (in 0.9% saline, 150 mg/kg i.p.) was only administered on allodynia test days. Test item, vehicle or control article administration was based on evaluation of allodynia on study day 14. If allodynia was not present on study day 14, the animal was evaluated again at study day 16. Pain response was measured either on study days 14 and 21 or 16 and 23, 30 minutes after Test Item administration.
For the allodynia assessments, Von Frey filaments were used according to the methods of Chaplan and colleagues (1994). Briefly, the rats were placed in an enclosure and positioned on a metal mesh surface, but allowed to move freely. The rats' cabins were covered with red cellophane to diminish environmental distributions. The test began after cessation of exploratory behavior.
When the tip of a Von Frey fiber of given length and diameter was pressed against the skin at right angles, the force of application increases as long as the researcher continued to advance the probe until the fiber bent. After the fiber bent, the probe was advanced, causing the fiber to bend more, but without additional force being applied. The animal would indicate sensation by pulling back its paw. In the absence of a paw withdrawal response to the initially selected filament, a stronger stimulus was presented; in the event of paw withdrawal, the next weaker stimulus was chosen. In this fashion, the resulting pattern of positive and negative responses was used to determine the paw withdrawal threshold.
The set of Von Frey monofilaments provide an approximate logarithmic scale of actual force and a linear scale of perceived intensity. Below is a table showing the force (g) and its corresponding size of monofilaments.
All normally distributed data are presented as means±SEM, as well as the animals' individual values followed by a student T-test (Software: Microsoft® Excel). A p value <0.05 is considered to represent a significant difference. Due to the non-normal distribution of the allodynia data, descriptions of those data are provided as both mean (±SEM) and median values in order to represent their imprecise nature and skewed distribution.

Take `O=C(N[C@@H]1C2CCN(CC2)[C@H]1Cc1cccnc1)c1cc(F)cc(F)c1.O=C(N[C@@H]1C2CCN(CC2)[C@H]1Cc1cccnc1)c1cc(F)cc(F)c1.O=C(O)c1ccc(O)cc1` [4-Hydroxybenzoate mono salt]: the “Aqueous Solubility” value in data set [1] is >10000 µg/mL. For `C[C@@H]1C[C@H]2[C@@H]3CCC4=CC(=O)C=C[C@]4(C)[C@@]3(F)[C@@H](O)C[C@]2(C)[C@@]1(O)C(=O)CO` [Dexamethasone, reference compound], the “methacholine (10 and 30 mg/mL)-induced increase in Penh values” in data set [2] (3 mg/kg PO once daily, reference standard) is reported as “significant inhibition”. For the same compound, in data set [2] (3 mg/kg p.o. once daily), the “increase in total WBC, neutrophils, lymphocytes, monocytes and eosinophils in BALF” value was “inhibited significantly”. With `O=C(N[C@@H]1C2CCN(CC2)[C@H]1Cc1cccnc1)c1cc(F)cc(F)c1.O=C(O)/C=C/C(=O)O` [Fumarate mono salt], the “Aqueous Solubility” value in data set [1] was >10000 µg/mL. On the same count and under the same terms, the same measure for `Cl.O=C(N[C@@H]1C2CCN(CC2)[C@H]1Cc1cccnc1)c1cc(F)cc(F)c1` [Hydrochloride mono salts]: >10000 µg/mL. Regarding `CCN1C[C@]2(COC(=O)c3ccccc3N3C(=O)C[C@H](C)C3=O)CC[C@H](OC)[C@@]34[C@@H]5C[C@H]6[C@H](OC)[C@@H]5[C@](O)(C[C@@H]6OC)[C@@](O)([C@@H](OC)[C@H]23)[C@@H]14` [MLA, methyllycaconitine, reference compound], in data set [3], the “effect of MLA co-administration on the inhibition of fasting plasma glucose” value was “not reversed”, the “effect of MLA co-administration on the reduced food consumption” value is on record as “failed to show the reduced daily average food consumption”, the “effect of MLA co-administration on the reduced weight gain” value was “failed to show the reduced weight gain” and the “effect of MLA co-administration on the reduction in glycosylated HbA1c” value is listed as “attenuated”. Further, in data set [3], the “effect of MLA co-administration on the reduction in triglycerides” value was “not attenuated” and the “effect of MLA co-administration on the reduction of TNF alpha” value was “inhibited”.

With `O=C(N[C@@H]1C2CCN(CC2)[C@H]1Cc1cccnc1)c1cc(F)cc(F)c1.O=P(O)(O)O` [Phosphate mono salts], the “Aqueous Solubility” value in data set [1] is >10000 µg/mL. In the case of `NCC1(CC(=O)O)CCCCC1` [gabapentin, reference compound], the tactile allodynia result in data set [4] is given as “reversed the tactile allodynia significantly”.
